Experimental data: the supplement of paper PMC11451515

Test system: P12-Ichikawa
Assay: cell viability relative to DMSO control; higher = less cytotoxic
Conditions: 48 h
Procedure, shortened: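 Viability was expressed as a per-plate percentage of DMSO wells, with cell-free wells as background. Leukemia cells (NOMO1 or SEM at 500 cells/well, P12-Ichikawa at 1000 cells/well) were adapted for at least four passages in each medium and seeded in 1536-well plates (5 μl). Library compounds in DMSO were pin-dosed over an 11-point threefold series from 47 μM to 0.79 nM, and CellTiter-Glo One luminescence was read after 48 h at 37°C.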

[1] = HPLM + 10% dialyzed FBS, 0.000781 µM
[2] = HPLM + 10% dialyzed FBS, 0.00234 µM
[3] = HPLM + 10% dialyzed FBS, 0.00702 µM
[4] = HPLM + 10% dialyzed FBS, 0.0211 µM
[5] = HPLM + 10% dialyzed FBS, 0.0632 µM
[6] = HPLM + 10% dialyzed FBS, 0.19 µM
[7] = HPLM + 10% dialyzed FBS, 0.569 µM
[8] = HPLM + 10% dialyzed FBS, 1.71 µM
[9] = HPLM + 10% dialyzed FBS, 5.12 µM
[10] = HPLM + 10% dialyzed FBS, 15.4 µM
[11] = HPLM + 10% dialyzed FBS, 46.1 µM
[12] = RPMI 5 mM glucose + 10% FBS, 0.000781 µM
[13] = RPMI 5 mM glucose + 10% FBS, 0.00234 µM
[14] = RPMI 5 mM glucose + 10% FBS, 0.00702 µM
[15] = RPMI 5 mM glucose + 10% FBS, 0.0211 µM
[16] = RPMI 5 mM glucose + 10% FBS, 0.0632 µM
[17] = RPMI 5 mM glucose + 10% FBS, 0.19 µM
[18] = RPMI 5 mM glucose + 10% FBS, 0.569 µM
[19] = RPMI 5 mM glucose + 10% FBS, 1.71 µM
[20] = RPMI 5 mM glucose + 10% FBS, 5.12 µM
[21] = RPMI 5 mM glucose + 10% FBS, 15.4 µM
[22] = RPMI 5 mM glucose + 10% FBS, 46.1 µM
[23] = RPMI 5 mM glucose + 10% dialyzed FBS, 0.000781 µM
[24] = RPMI 5 mM glucose + 10% dialyzed FBS, 0.00234 µM
[25] = RPMI 5 mM glucose + 10% dialyzed FBS, 0.00702 µM
[26] = RPMI 5 mM glucose + 10% dialyzed FBS, 0.0211 µM
[27] = RPMI 5 mM glucose + 10% dialyzed FBS, 0.0632 µM
[28] = RPMI 5 mM glucose + 10% dialyzed FBS, 0.19 µM
[29] = RPMI 5 mM glucose + 10% dialyzed FBS, 0.569 µM
[30] = RPMI 5 mM glucose + 10% dialyzed FBS, 1.71 µM
[31] = RPMI 5 mM glucose + 10% dialyzed FBS, 5.12 µM
[32] = RPMI 5 mM glucose + 10% dialyzed FBS, 15.4 µM
[33] = RPMI 5 mM glucose + 10% dialyzed FBS, 46.1 µM

Compound	cell viability [1] [%]	cell viability [2] [%]	cell viability [3] [%]	cell viability [4] [%]	cell viability [5] [%]	cell viability [6] [%]	cell viability [7] [%]	cell viability [8] [%]	cell viability [9] [%]	cell viability [10] [%]	cell viability [11] [%]	cell viability [12] [%]	cell viability [13] [%]	cell viability [14] [%]	cell viability [15] [%]	cell viability [16] [%]	cell viability [17] [%]	cell viability [18] [%]	cell viability [19] [%]	cell viability [20] [%]	cell viability [21] [%]	cell viability [22] [%]	cell viability [23] [%]	cell viability [24] [%]	cell viability [25] [%]	cell viability [26] [%]	cell viability [27] [%]	cell viability [28] [%]	cell viability [29] [%]	cell viability [30] [%]	cell viability [31] [%]	cell viability [32] [%]	cell viability [33] [%]
C=CC(=O)Nc1ccc2ncnc(Nc3ccc(OCc4cccc(F)c4)c(Cl)c3)c2c1	97	111	104	105	113	109	97.2	105	85.1	10.7	10.7	97.3	105	109	105	110	107	118	103	83.1	13.4	12.3	97.1	111	117	122	111	118	116	107	81	21.4	16.4
COc1ccc2[nH]cc(CCNC(C)=O)c2c1												125	125	112	121	122	123	112	111	109	108	112											
Nc1nc(N)c(N=O)c(OCC2CCCCC2)n1	89.4	90.3	88.9	90.6	97.6	92.2	88.3	81.1	75.6	60.6	40.1	86	87.3	86.9	93	98.2	95.3	84.6	78.7	53.8	45	34.7	84.8	89.2	85	86.9	100	88.5	91.3	72.3	59	48.9	35.9
C[C@H]1Oc2cc(cnc2N)-c2c(nn(C)c2C#N)CN(C)C(=O)c2ccc(F)cc21	118	120	119	120	120	124	122	110	112	112	96.3	120	122	123	113	123	119	119	112	114	114	105											
O=[S+]([O-])(NCCNC/C=C/c1ccc(Br)cc1)c1cccc2cnccc12	108	110	102	105	107	107	106	100	97	95.3	95.8	99.1	108	96.4	89	97.6	108	102	99.2	96.6	81.5	72	95.9	95.6	103	96.2	99.6	101	102	103	95.8	77	77.8
CCOC(=O)[C@@H](N)CCC(=O)N[C@@H](CSCc1ccccc1)C(=O)N[C@@H](C(=O)OCC)c1ccccc1	109	124	128	126	131	131	129	132	139	140	123																						
CC[C@H]1CN2CCc3cc(OC)c(OC)cc3[C@@H]2C[C@@H]1C[C@H]1NCCc2cc(OC)c(OC)cc21	111	116	108	103	92.5	77.1	39.7	25.7	28.8	21.1	16.1	96.8	107	104	102	93.3	69.4	28.9	16.6	14.8	13.4	11.1	103	113	109	108	103	80.3	56.5	29.6	19.4	14.1	13.6
CCOC(=O)N[C@@H]1CC[C@@H]2[C@@H](C1)C[C@H]1C(=O)O[C@H](C)[C@H]1[C@H]2/C=C/c1ccc(-c2cccc(F)c2)cn1	113	114	115	114	114	117	113	120	120	115	98.5												114	116	124	122	123	120	123	122	120	119	68.4
N#Cc1ccc(NC(=O)Nc2ccccc2Br)c2nn[nH]c12	101	109	109	115	119	123	122	116	125	126	79.1	101	109	112	120	118	134	122	117	128	127	122	103	110	111	108	117	112	123	109	121	125	95.7
Cc1cccc(-c2[nH]c(C(C)(C)C)nc2-c2ccc3c(c2)OCO3)n1	105	109	110	107	102	105	110	105	100	17.5	11.1	98.4	102	92.8	106	96.9	97	94.1	96.2	98.6	14	8.01	102	112		108	101	101	106	95.9	96	37.1	19.6
